In paper PMC11418745 (Molecular cell, 2023):
Read-outs that look alike come from different tables or passages of the source.

How the values were obtained:
[1] = target: T1, SIR2-HerA complex (SIR2 NADase site) (Escherichia coli, UniProt A0ABF7PQ24); assay: cryo-EM structure, […] Å; format: binding; conditions: SIR2 active site; 12:6 complex (also 12:5 8SUB and 12:4 8SUW)
[2] = target: SIR2-HerA complex (HerA nucleotide site) (Escherichia coli, UniProt A0ABF7PQ25); assay: ATPase kit, colorimetric phosphate; format: biochemical; conditions: 20 mM Tris pH 8.0, 75 mM KCl, 2 mM MgCl2, 37 °C
EcSIR2 dodecamer = EcSIR2 dodecamer (Escherichia coli, UniProt A0ABF7PQ24); assay: cryo-EM structure, […] Å; format: binding; conditions: active site of SIR2 dodecamer without HerA; not hydrolysed
[3] = target: T1, SIR2-HerA complex (SIR2 NADase site); assay: ε-NAD+ fluorescence NADase assay; format: biochemical; conditions: 0.5 μM protein, 20 mM Tris pH 8.0, 75 mM KCl, 2 mM MgCl2, 33 °C
cryo-EM structure [4] = target: the molecule itself; assay: cryo-EM structure
cryo-EM structure [5] = target: the molecule itself; assay: cryo-EM structure; remark: listed apart in the source

Molecule: Nc1ncnc2c1ncn2[C@@H]1O[C@H](COP(=O)(O)OP(=O)(O)OC[C@H]2OC(O)[C@H](O)[C@@H]2O)[C@@H](O)[C@H]1O (stereo partly shown) [ADPR]
- cryo-EM structure, 2.83 Å [1]: an ADPR molecule, the product of NAD^+ hydrolysis, occupied the active site of EcSIR2

Molecule: Nc1ncnc2c1ncn2[C@@H]1O[C@H](COP(=O)(O)OP(=O)(O)OP(=O)(O)O)[C@@H](O)[C@H]1O [ATP]
- ATPase kit, colorimetric phosphate [2]: the SIR2-HerA complex, not HerA alone, can hydrolyze ATP

Molecule: NC(=O)c1ccc[n+]([C@@H]2O[C@H](COP(=O)(O)OP(=O)(O)OC[C@H]3O[C@@H](n4cnc5c(N)ncnc54)[C@H](O)[C@@H]3O)[C@@H](O)[C@H]2O)c1 [NAD^+]
- cryo-EM structure, 3.6 Å (EcSIR2 dodecamer): identified an NAD^+ molecule in the active site of EcSIR2

Molecule: NC(=O)c1ccc[n+]([C@@H]2O[C@H](COP(=O)(O)OP(=O)(O)OC[C@H]3O[C@@H](n4cnc5c4ncn4ccnc54)[C@H](O)[C@@H]3O)[C@@H](O)[C@H]2O)c1 [ε-NAD^+]
- ε-NAD+ fluorescence NADase assay [3]: To test the NADase activities of the SIR2-HerA complex and SIR2 alone, ε-NAD^+ assays

B1: E. coli HerA (EcHerA) co-expressed with SIR2 as the SIR2-HerA complex (enzyme)
chain: MSLFKLTEISAIGYVVGLEGERIRINLHEGLQGRLASHRKGVSSVTQPGDLIGFDAGNILVVARVTDMAFVEADKAHKANVGTSDLADIPLRQIIAYAIGFVKRELNGYVFISEDWRLPALGSSAVPLTSDFLNIIYSIDKEELPKAVELGVDSRTKTVKIFASVDKLLSRHLAVLGSTGYGKSNFNALLTRKVSEKYPNSRIVIFDINGEYAQAFTGIPNVKHTILGESPNVDSLEKKQQKGELYSEEYYCYKKIPYQALGFAGLIKLLRPSDKTQLPALRNALSAINRTHFKSRNIYLEKDDGETFLLYDDCRDTNQSKLAEWLDLLRRRRLKRTNVWPPFKSLATLVAEFGCVAADRSNGSKRDAFGFSNVLPLVKIIQQLAEDIRFKSIVNLNGGGELADGGTHWDKAMSDEVDYFFGKEKGQENDWNVHIVNMKNLAQDHAPMLLSALLEMFAEILFRRGQERSYPTVLLLEEAHHYLRDPYAEIDSQIKAYERLAKEGRKFKCSLIVSTQRPSELSPTVLAMCSNWFSLRLTNERDLQALRYAMESGNEQILKQISGLPRGDAVAFGSAFNLPVRISINQARPGPKSSDAVFSEEWANCTELRC
- stoichiometry N (cryo-EM structure [4]): 6

B2: E. coli SIR2 (EcSIR2) co-expressed with HerA as the SIR2-HerA complex (enzyme)
chain: MSIYQGGNKLNEDDFRSHVYSLCQLDNVGVLLGAGASVGCGGKTMKDVWKSFKQNYPELLGALIDKYLLVSQIDSDNNLVNVELLIDEATKFLSVAKTRRCEDEEEEFRKILSSLYKEVTKAALLTGEQFREKNQGKKDAFKYHKELISKLISNRQPGQSAPAIFTTNYDLALEWAAEDLGIQLFNGFSGLHTRQFYPQNFDLAFRNVNAKGEARFGHYHAYLYKLHGSLTWYQNDSLTVNEVSASQAYDEYINDIINKDDFYRGQHLIYPGANKYSHTIGFVYGEMFRRFGEFISKPQTALFINGFGFGDYHINRIILGALLNPSFHVVIYYPELKEAITKVSKGGGSEAEKAIVTLKNMAFNQVTVVGGGSKAYFNSFVEHLPYPVLFPRDNIVDELVEAIANLSKGEGNVPF
- stoichiometry N (cryo-EM structure [4]): 12

B3: E. coli SIR2 (EcSIR2), expressed alone (enzyme)
chain: B2 chain
- stoichiometry N (cryo-EM structure [5]): 12
